Data: publication PMC6791383, “A side-by-side evaluation of [^18F]FDOPA enantiomers for non-invasive detection of neuroendocrine tumors by positron emission tomography” (Oncotarget, 2019)

Assays:
[1] = tested on: TGP61 cells; test: In vitro uptake (binding) assay in TGP61 cells; format: cell-based; details: 30mins incubation, 1 million cells, % incubated dose/million cells
Method: Both [^18F]FDOPA enantiomers were initially assessed in vitro in all NET cells.
In vitro binding assays were carried out, in triplicate, in PBS with 0.5% FBS, for 30mins at ambient temperatures using 1 million cells and repeated three times. Blocking studies were carried out using 10meq of the commercial LAT1 inhibitor, 2-Aminobicyclo[2.2.1]heptane-2-carboxylic acid (TOCRIS, MN, USA). Following incubation with each tracer, cells were rinsed three times with cold PBS prior to being counted on an automated gamma counter (1282 Compugamma CS; Pharmacia/LKBNuclear, Inc.) along with external standards. Obtained counts were converted into percentage incubated dose per million cells based on normalization to external standards. Experiments were performed in triplicate and repeated three times.

[2] = tested on: PC12 xenografts; test: In vivo PET-CT quantitative image analysis, PC12 xenografts; details: PC12 tumors, NSG mice, 9MBq
Method: (§1) All animal studies were carried out according to regulations set forth and approved by the Johns Hopkins Animal Care and Use Committee. Female, 6- to 8-weeks-old immunodeficient NOD scid gamma (NSG) mice were subcutaneously inoculated with 1 million PC12, STC-1 or COLO-320 cells in […] of Hank’s balanced salt solution in the top flank. Tumors of 4–6 mm in diameter (typically 14-21 days post inoculation) were utilized for in vivo imaging or ex vivo biodistribution studies.
(§2) Mice (n=4) were injected with 9MBq (250μCi) of each tracer in 150μL of saline intravenously and anesthetized with 3% isoflurane prior to being placed on the scanner bed. Mice were kept warm with an external light source and maintained at 1% isoflurane levels while being scanned. PET imaging (2 beds; 10 min per bed) was carried out using an ARGUS small-animal PET/CT scanner (Sedecal). A CT scan (512 projections) was obtained at the end of each PET scan for anatomical co-registration. For in vivo blocking experiments, mice were injected with 10meq of LAT1 inhibitor. PET data were reconstructed using the 2-dimensional ordered subsets-expectation maximization algorithm (2D-OSEM) and corrected for dead time and radioactive decay. Data visualization and image generation were carried out using Amira 2019.1 (ThermoFisher Scientific).
(§3) Quantitative in vivo image analysis was carried out in AMIDE (SourceForge) 1.0.4 utilizing ellipsoid region-of-interest volume integrations with 3 slices entailing a depth of 1.9 mm per slice. The %ID per cc values were calculated based on a calibration factor obtained from a phantom (known radioactive quantity in a known volume).

[3] = tested on: STC-1 xenografts; test: Ex vivo biodistribution in NSG mice bearing STC-1 xenografts; details: for Biodistribution, Bladder / Biodistribution, Blood / Biodistribution, Bone / Biodistribution, Brain / Biodistribution, Fat / Biodistribution, Heart / Biodistribution, Kidneys / Biodistribution, Liver / Biodistribution, Lungs / Biodistribution, Muscle / Biodistribution, Pancreas / Biodistribution, Small Intestines / Biodistribution, Spleen / Biodistribution, Stomach / Biodistribution, Tumor: STC-1 xenograft NSG mice, 1.5MBq i.v.
Method: as §1
Mice (n=5 per group) were intravenously injected with 1.5MBq (40μCi) of each tracer in 150μL of saline. Ex vivo biodistribution studies were performed at 30min and 120min time points after tracer administration. Blood, liver, spleen, heart, lungs, kidneys, small intestines, stomach, muscle, fat, bone, bladder, brain and tumor tissues were retrieved, weighed, and counted in an automated gamma counter (1282 Compugamma CS). Percentage injected dose per gram (%ID/g) values were calculated based on normalization to external standards, counted in triplicate, and accounted for signal-decay correction.

[4] = tested on: LAT1; test: In vivo PET-CT blocking by BCH in NET mouse models; set-up: species or system mice; details: all NET mouse models (PC12, STC-1, COLO-320), 10meq LAT1 inhibitor
Method: as §2, §3

N[C@H](Cc1cc(O)c(O)cc1[18F])C(=O)O [D-[^18F]FDOPA, 3,4-dihydroxy-6-[^18F]fluoro-D-phenylalanine]
in vitro uptake [1]: 3.11±0.41%
tumor uptake, quantitative PET image analysis ([2]; 30min post i.v. injection): 8.87±0.31 %ID/cc
tumor uptake, quantitative PET image analysis ([2]; 120min post i.v. injection): 3.96±0.34 %ID/cc
pancreatic retention, fold lower compared to L-[^18F]FDOPA ([3]; STC-1 mice, 120min p.i.): approximately 2 fold
Biodistribution, Bladder ([3]; 30min p.i.): 20.49 %ID/g
Biodistribution, Blood ([3]; 30min p.i.): 4.31 %ID/g
Biodistribution, Bone ([3]; 30min p.i.): 3.94 %ID/g
Biodistribution, Brain ([3]; 30min p.i.): 0.55 %ID/g
Biodistribution, Fat ([3]; 30min p.i.): 2.27 %ID/g
Biodistribution, Heart ([3]; 30min p.i.): 2.52 %ID/g
Biodistribution, Kidneys ([3]; 30min p.i.): 12.32 %ID/g
Biodistribution, Liver ([3]; 30min p.i.): 3.85 %ID/g
Biodistribution, Lungs ([3]; 30min p.i.): 6.63 %ID/g
Biodistribution, Muscle ([3]; 30min p.i.): 1.62 %ID/g
Biodistribution, Pancreas ([3]; 30min p.i.): 61.64 %ID/g
Biodistribution, Small Intestines ([3]; 30min p.i.): 10.28 %ID/g
Biodistribution, Spleen ([3]; 30min p.i.): 17.41 %ID/g
Biodistribution, Stomach ([3]; 30min p.i.): 9.37 %ID/g
Biodistribution, Tumor ([3]; 30min p.i.): 6.92 %ID/g
Biodistribution, Bladder ([3]; 120min p.i.): 7.51 %ID/g
Biodistribution, Blood ([3]; 120min p.i.): 1.49 %ID/g
Biodistribution, Bone ([3]; 120min p.i.): 5.28 %ID/g
Biodistribution, Brain ([3]; 120min p.i.): 1.30 %ID/g
Biodistribution, Fat ([3]; 120min p.i.): 1.14 %ID/g
Biodistribution, Heart ([3]; 120min p.i.): 1.58 %ID/g
Biodistribution, Kidneys ([3]; 120min p.i.): 2.30 %ID/g
Biodistribution, Liver ([3]; 120min p.i.): 1.60 %ID/g
Biodistribution, Lungs ([3]; 120min p.i.): 2.34 %ID/g
Biodistribution, Muscle ([3]; 120min p.i.): 2.66 %ID/g
Biodistribution, Pancreas ([3]; 120min p.i.): 9.75 %ID/g
Biodistribution, Small Intestines ([3]; 120min p.i.): 3.80 %ID/g
Biodistribution, Spleen ([3]; 120min p.i.): 0.61 %ID/g
Biodistribution, Stomach ([3]; 120min p.i.): 4.84 %ID/g
Biodistribution, Tumor ([3]; 120min p.i.): 3.15 %ID/g
tumor uptake after in vivo blocking by BCH [4]: significantly reduced
